Reference: patent US6313171A, “Method for preventing or treating elevated blood lipid level-related diseases by administering cinnamic acid derivatives” (Korea Research Institute of Bioscience & Biotechnology, priority 1998, dated 2001)

Assay: Plasma cholesterol and triglyceride in two men with hyperlipidemia
Type: in vivo, human
Conditions: 10 mg/kg daily oral capsule, 60 days
Experimental: Two men in their mid-fifties, suffered by hyperlipidemia with blood cholesterol level ranging from 230 to 270 mg/dl and blood triglyceride level ranging from 200 to 220 mg/dl, were administered with a daily oral dose of 10 mg/kg of 4-hydroxycinnamic acid in the form of a capsule for 60 days. The plasma cholesterol and triglyceride contents were determined before and after the administration.

With `O=C(O)/C=C/c1ccc(O)cc1` [4-Hydroxycinnamic acid, 4-hydroxycinnamic acid] the “reduction of plasma cholesterol content” value was 25% and the “reduction of plasma triglyceride content” value was 20%.
